{"source": "patent US20240199587A1", "about": "“HETEROCYCLIC COMPOUNDS” (Hoffmann-La Roche Inc., priority 2021, published 2024)"}
{"biological_target": "T1, MAGL (Homo sapiens, UniProt Q99685)", "T1 sequence (Q99685 1-303)": "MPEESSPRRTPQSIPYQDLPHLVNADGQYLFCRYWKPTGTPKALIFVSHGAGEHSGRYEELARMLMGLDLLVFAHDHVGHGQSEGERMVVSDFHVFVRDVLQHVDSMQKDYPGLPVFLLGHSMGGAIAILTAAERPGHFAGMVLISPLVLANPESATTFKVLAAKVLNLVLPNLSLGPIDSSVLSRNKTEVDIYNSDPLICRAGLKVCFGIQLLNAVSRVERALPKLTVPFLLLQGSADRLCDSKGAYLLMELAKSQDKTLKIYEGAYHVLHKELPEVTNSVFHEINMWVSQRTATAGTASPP", "test": "2-AG assay (MAGL inhibitory activity, hydrolysis of 2-arachidonoylglycerol to arachidonic acid followed by mass spectrometry)", "type": "biochemical", "conditions": "8 μM 2-arachidonoylglycerol, 15 min pre-incubation, 30 min incubation at RT, RapidFire MS readout", "from_the_text": "Compounds of formula (I) were profiled for MAGL inhibitory activity by determining the enzymatic activity by following the hydrolysis of the natural substrate 2-arachidonoylglycerol (2-AG) resulting in arachidonic acid, which can be followed by mass spectrometry. This assay is hereinafter abbreviated “2-AG assay”.\nCompounds of formula (I) were profiled for MAGL inhibitory activity by determining the enzymatic activity by following the hydrolysis of the natural substrate 2-arachidonoylglycerol (2-AG) resulting in arachidonic acid, which can be followed by mass spectrometry. This assay is hereinafter abbreviated “2-AG assay”. The 2-AG assay was carried out in 384 well polypropylene assay plates. […] Compound dilutions were added to MAGL protein in assay buffer (50 mM TRIS, 1 mM EDTA, 0.01% (v/v) Tween-20, 2.5% (v/v) DMSO). After shaking, the plate was incubated for 15 min at RT. To start the reaction, 2-arachidonoylglycerol in assay buffer was added. The final concentrations in the assay was […] for MAGL protein and 8 μM 2-arachidonoylglyerol. After shaking and 30 min incubation at RT, the reaction was quenched by the addition of two assay volumes of acetonitrile containing 4 μM of d8-arachidonic acid. The amount of arachidonic acid formed was traced by an online SPE system (Agilent Rapidfire) coupled to a triple quadrupole mass spectrometer. A C18 SPE cartridge (Agilent G9205A) was used in an acetonitrile/water liquid setup. The mass spectrometer was operated in negative electrospray mode following the mass transitions 303.1→259.1 for arachidonic acid and 311.1→267.0 for d8-arachidonic acid. The activity of the compounds was calculated based on the ratio of intensities [arachidonic acid/d8-arachidonic acid].", "units": {"IC50": "nM"}}
{"smiles": "CS(=O)(=O)c1cc(Cl)ccc1-c1ccc(C2CN(C(=O)N3CC4(CC(n5cncn5)C4)C3)C2)cc1", "note": "[Example 413, [3-[4-(4-chloro-2-methylsulfonyl-phenyl)phenyl]azetidin-1-yl]-[6-(1,2,4-triazol-1-yl)-2-azaspiro[3.3]heptan-2-yl]methanone]", "IC50": 47.8}
{"smiles": "Cc1cc(F)c(F)cc1O[C@H]1C[C@@H]2CN(C(=O)N3CC4(CC(n5cnc(C6CC6)n5)C4)C3)C[C@@H]2C1", "note": "[Example 128, [6-(3-cyclopropyl-1,2,4-triazol-1-yl)-2-azaspiro[3.3]heptan-2-yl]-[rac-(3aS,6aR)-5-(4,5-difluoro-2-methyl-phenoxy)-3,3a,4,5,6,6a-hexahydro-1H-cyclopenta[c]pyrrol-2-yl]methanone]", "IC50": 1.8}
{"smiles": "O=C(N1CC(c2noc(C3(C(F)(F)F)CC3)n2)C1)N1CC2(CC(n3cnc(C4CC4)n3)C2)C1", "note": "[Example 140, [6-(3-cyclopropyl-1,2,4-triazol-1-yl)-2-azaspiro[3.3]heptan-2-yl]-[3-[5-[1-(trifluoromethyl)cyclo-propyl]-1,2,4-oxadiazol-3-yl]azetidin-1-yl]methanone]", "IC50": 61.7}
{"smiles": "N#Cc1c(OC2CN(C(=O)N3CC4(CC(n5cnc(C6CC6)n5)C4)C3)C2)cccc1C1CC1", "note": "[Example 191, 2-cyclopropyl-6-[1-[6-(3-cyclopropyl-1,2,4-triazol-1-yl)-2-azaspiro[3.3]heptane-2-carbonyl]azetidin-3-yl]oxy-benzonitrile]", "IC50": 0.2}
{"smiles": "O=C(N1CC(Oc2cccc(C3CC3)c2F)C1)N1CC2(CC(n3cnc(C4CC4)n3)C2)C1", "note": "[Example 198, [3-(3-cyclopropyl-2-fluoro-phenoxy)azetidin-1-yl]-[6-(3-cyclopropyl-1,2,4-triazol-1-yl)-2-azaspiro[3.3]heptan-2-yl]methanone]", "IC50": 0.5}
{"smiles": "COc1cc(C(F)(F)F)ccc1CNC1CN(C(=O)N2CC3(CC(n4cnc(C5(O)CC5)n4)C3)C2)C1", "note": "[Example 393, [6-[3-(1-hydroxycyclopropyl)-1,2,4-triazol-1-yl]-2-azaspiro[3.3]heptan-2-yl]-[3-[[2-methoxy-4-(trifluoromethyl)phenyl]methylamino]azetidin-1-yl]methanone]", "IC50": 401}
{"smiles": "O=C(N1C[C@H]2CC(Oc3ccc(C(F)(F)F)cc3F)C[C@H]2C1)N1CC2(CC(n3cnc(C4CC4)n3)C2)C1", "note": "(mixture of isomers) [Example 89, [6-(3-cyclopropyl-1,2,4-triazol-1-yl)-2-azaspiro[3.3]heptan-2-yl]-[rac-(3aS,6aR)-5-[2-fluoro-4-(trifluoromethyl)phenoxy]-3,3a,4,5,6,6a-hexahydro-1H-cyclopenta[c]pyrrol-2-yl]methanone]", "IC50": 2.5}
{"smiles": "O=C(N1CC(C23CC(c4nnc(C5CC5)[nH]4)(C2)C3)C1)N1CC2(CC(n3cnc(C(F)(F)F)n3)C2)C1", "note": "[Example 433, [3-[3-(5-cyclopropyl-4H-1,2,4-triazol-3-yl)-1-bicyclo[1.1.1]pentanyl]azetidin-1-yl]-[6-[3-(trifluoromethyl)-1,2,4-triazol-1-yl]-2-azaspiro[3.3]heptan-2-yl]methanone]", "IC50": 44.1}
{"smiles": "O=C(N1CC(OCc2ccc(OC(F)(F)F)cc2F)C1)N1CC2(CC(n3cnc(C4CC4)n3)C2)C1", "note": "[Example 75, (6-(3-cyclopropyl-1H-1,2,4-triazol-1-yl)-2-azaspiro[3.3]heptan-2-yl)(3-((2-fluoro-4-(trifluoromethoxy)ben-zyl)oxy)azetidin-1-yl)methanone]", "IC50": 2.7}
{"smiles": "O=C(N1CC2(CC(Oc3nccc(C(F)(F)F)n3)C2)C1)N1CC2(CC(n3cnc(C4CC4)n3)C2)C1", "note": "[Example 58, [6-(3-cyclopropyl-1,2,4-triazol-1-yl)-2-azaspiro[3.3]heptan-2-yl]-[6-[4-(trifluoromethyl)pyrimidin-2-yl]oxy-2-azaspiro[3.3]heptan-2-yl]methanone]", "IC50": 2.6}
{"smiles": "O=C(N1CC(c2ccc(N3CC(O)(C(F)(F)F)C3)nc2)C1)N1CC2(CC(n3cnc(C(F)(F)F)n3)C2)C1", "note": "[Example 452, [3-[6-[3-hydroxy-3-(trifluoromethyl)azetidin-1-yl]-3-pyridyl]azetidin-1-yl]-[6-[3-(trifluoromethyl)-1,2,4-triazol-1-yl]-2-azaspiro[3.3]heptan-2-yl]methanone]", "IC50": 3.69}
{"smiles": "O=C(N1CC2(CCN(S(=O)(=O)C34CC(C(F)(F)F)(C3)C4)CC2)C1)N1CC2(CC(n3cnc(C4CC4)n3)C2)C1", "note": "[Example 484, [6-(3-cyclopropyl-1,2,4-triazol-1-yl)-2-azaspiro[3.3]heptan-2-yl]-[7-[[3-(trifluoromethyl)-1-bicyclo[1.1.1]pentanyl]sulfonyl]-2,7-diazaspiro[3.5]nonan-2-yl]methanone]", "IC50": 19.5}
{"smiles": "NC(=O)C(c1ccc(F)cc1)N1CCN(C(=O)N2CC3(CC(n4cnc(C5CC5)n4)C3)C2)CC1", "note": "(centres unmarked) [Example 332, 2-[4-[6-(3-cyclopropyl-1,2,4-triazol-1-yl)-2-azaspiro[3.3]heptane-2-carbonyl]piperazin-1-yl]-2-(4-fluorophenyl)acetamide]", "IC50": 904}
{"smiles": "O=C(N1CC(Oc2ccc(C(F)(F)F)cc2F)C1)N1CC2(CC(n3cnc(C4CC4)n3)C2)C1", "note": "[Example 96, (6-(3-cyclopropyl-1H-1,2,4-triazol-1-yl)-2-azaspiro[3.3]heptan-2-yl)(3-(2-fluoro-4-(trifluoromethyl)phenoxy)azetidin-1-yl)methanone]", "IC50": 2.7}
{"smiles": "N=S(=O)(c1cccc(CC2CC3(C2)CN(C(=O)N2CC4(CC(n5cnc(C6CC6)n5)C4)C2)C3)c1)C(F)(F)F", "note": "(centres unmarked) [Example 447, [6-(3-cyclopropyl-1,2,4-triazol-1-yl)-2-azaspiro[3.3]heptan-2-yl]−[6-[[3-(trifluoromethylsulfonimidoyl)phenyl]methyl]-2-azaspiro[3.3]heptan-2-yl]methanone]", "IC50": 0.02}
{"smiles": "O=C(N1CC2(CC(n3cnc(C4CC4)n3)C2)C1)N1CC2(CN(Cc3ccc(F)cc3C(F)(F)F)C2)C1", "note": "[Example 196, [6-(3-cyclopropyl-1,2,4-triazol-1-yl)-2-azaspiro[3.3]heptan-2-yl]-[6-[[4-fluoro-2-(trifluoromethyl)phenyl]methyl]-2,6-diazaspiro[3.3]heptan-2-yl]methanone]", "IC50": 0.4}
{"smiles": "CS(=O)(=O)c1ccc(CC2CC3(C2)CN(C(=O)N2CC4(CC(n5cnc(C6CC6)n5)C4)C2)C3)cc1", "note": "[Example 205, [6-(3-cyclopropyl-1,2,4-triazol-1-yl)-2-azaspiro[3.3]heptan-2-yl]-[6-(4-mesylbenzyl)-2-azaspiro[3.3]heptan-2-yl]methanone]", "IC50": 0.9}
{"smiles": "O=C(N1CC(c2ccc(NCC3(C(F)(F)F)CC3)nc2)C1)N1CC2(CC(c3ccc(C(F)(F)F)nc3)C2)C1", "note": "[Example 527]", "IC50": 50.9}
{"smiles": "O=C(N1C[C@H]2C[C@H](Oc3ccc(C(F)(F)F)c(Cl)c3)C[C@H]2C1)N1CC2(CC(n3cnc(C4CC4)n3)C2)C1", "note": "[Example 115, [6-(3-cyclopropyl-1,2,4-triazol-1-yl)-2-azaspiro[3.3]heptan-2-yl]-[rac-(3aS,6aR)-5-[3-chloro-4-(trifluoromethyl)phenoxy]-3,3a,4,5,6,6a-hexahydro-1H-cyclopenta[c]pyrrol-2-yl]methanone]", "IC50": 2.4}
{"smiles": "O=C(N1CC2(CC(Cc3ncc(Cl)cc3F)C2)C1)N1CC2(CC(n3cnc(C4(O)CC4)n3)C2)C1", "note": "[Example 367, [6-[(5-chloro-3-fluoro-2-pyridyl)methyl]-2-azaspiro[3.3]heptan-2-yl]-[6-[3-(1-hydroxycyclopropyl)-1,2,4-triazol-1-yl]-2-azaspiro[3.3]heptan-2-yl]methanone]", "IC50": 2.38}
{"smiles": "COc1ccnn1C1CC2(C1)CN(C(=O)c1ccc(-c3noc(C(C)(C)C)n3)cc1)C2", "note": "[Example 19, [4-(5-tert-butyl-1,2,4-oxadiazol-3-yl)phenyl]-[6-(5-methoxypyrazol-1-yl)-2-azaspiro[3.3]heptan-2-yl]methanone]", "IC50": 4170}
{"smiles": "N=S(=O)(c1ccc(CC2CC3(C2)CN(C(=O)N2CC4(CC(n5cnc(C6CC6)n5)C4)C2)C3)cc1)C(F)(F)F", "note": "(centres unmarked) [Example 446, [6-(3-cyclopropyl-1,2,4-triazol-1-yl)-2-azaspiro[3.3]heptan-2-yl]-[6-[[4-(trifluoromethylsulfonimidoyl)phenyl]methyl]-2-azaspiro[3.3]heptan-2-yl]methanone]", "IC50": 0.06}
{"smiles": "O=C(N1CC2(CC(Oc3cnc(C(F)(F)F)cn3)C2)C1)N1CC2(CC(n3cnc(C4CC4)n3)C2)C1", "note": "[Example 70, [6-(3-cyclopropyl-1,2,4-triazol-1-yl)-2-azaspiro[3.3]heptan-2-yl]-[6-[5-(trifluoromethyl)pyrazin-2-yl]oxy-2-azaspiro[3.3]heptan-2-yl]methanone]", "IC50": 2.1}
